This is an account of results in patent US5486595A, “Tumor necrosis factor inhibitors” (Centecor, Inc., priority 1994, dated 1996).

The term inhibition denotes the relative decrease from the control value, in per cent.

Where a SMILES comes first, the peptide text is derived from it.

In one assay the target is T1, human TNFα (Homo sapiens, UniProt P01375).
T1 construct: purchased Biosource, Camarillo, Calif
T1 sequence (P01375 77-233 limits assumed): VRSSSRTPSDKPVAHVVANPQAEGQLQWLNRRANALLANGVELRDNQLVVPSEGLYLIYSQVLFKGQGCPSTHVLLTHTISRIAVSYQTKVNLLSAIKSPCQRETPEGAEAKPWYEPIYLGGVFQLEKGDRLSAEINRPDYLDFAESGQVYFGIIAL
As to the kind of experiment: p55 Receptor/IgG Fusion Protein Binding Assay (inhibition of TNFα capture by p55-Ig coated plate). The settings on record: peptide 1 mM; TNFα 25 ng/ml. As for the experimental part:
This assay was designed to identify peptides which bind to human TNFα and thereby prevent the capture of the TNFα by a microtiter plate coated with p55-Ig fusion protein. A constant concentration of human TNFα is preincubated with the test peptide and then incubated on the p55-Ig coated microtiter wells. Bound TNFα is detected using a specific antisera and an alkaline phosphatase-conjugated probe.
A 96-well, U-bottom polyvinylchloride microtiter plate was coated with 50 μl/well of p55-Ig fusion protein at 5 μg/ml in 0.01M sodium phosphate, 0.15M sodium chloride (PBS) by incubation overnight at 4° C. or 2 hours at 37° C. The fusion protein, which consists of a p55 TNF receptor protein portion and an IgG portion, can be produced as disclosed in U.S. application Ser. No. 08/010,406 filed Jan. 29, 1993 which is incorporated herein by reference. The plate was washed three times with 0.05% Tween-20 in PBS, then blocked, by adding 150 μl/well of assay buffer (10 mM N-2-hydroxyethylpiperazine-N'-[…] (HEPES) pH 7.2, containing 0.1% porcine gelatin, 0.1% Tween-80, and 0.01% sodium azide) and continuing incubation for 1 hour at 37° C. or at 4° C. for 1-7 days.
Lyophilized peptides to be tested were weighed in tared 12×75 mm polystyrene tubes and reconstituted to a concentration of 1.2 mM with assay buffer. Each suspension was sonicated in a water bath for 1-5 minutes and vortexed 15-30 seconds to disperse large particles. Serial dilutions of each peptide suspension were prepared using assay buffer in a 96-well polystyrene microtiter plate. Additional wells received Fab fragment of the mouse/human monoclonal anti-human TNFα antibody cA2 (positive control) or assay buffer (negative control). […] The polystyrene dilution plate was then sealed and incubated 1 hour at room temperature on an orbital mixer set at moderate speed.
Following the sample preincubation, blocker was discarded from the p55-Ig coated plate and blotted dry. Aliquots (50 μl) of each peptide or control were transferred into duplicate wells on the p55-Ig coated plate which was then sealed and incubated i hour at 37° C. Duplicate wells containing only assay buffer were included as a plate blank. After incubation the p55-Ig plate was washed three times with 0.05% Tween-20 in PBS.
To detect TNFα captured by the p55-Ig plate, all wells were incubated in succession with polyclonal rabbit anti-human TNFα (Genzyme, Boston, Mass.; 1:500 in assay buffer, 50 μl/well), biotinylated goat anti-rabbit Ig (H&L) (Vector Laboratories, Burlingame, Calif.; 1 μg/ml in assay buffer, 50 μl/well) and streptavidin-alkaline phosphatase conjugate (Pierce, Rockford, Ill.; 1 μg/ml in assay buffer, 50 μl/well). All incubations were for 1 hour at 37° C. and after each incubation the plate was washed three times with 0.05% Tween-20 in PBS. Fifty microliters of alkaline phosphatase substrate solution (alkaline buffer (Sigma, St. Louis, Mo.) diluted 1:500 in deionized water plus one 5 mg tablet of p-nitrophenyl phosphate (Sigma, St. Louis, Mo.) per 5 ml of diluted buffer) was added to all wells and incubation continued for 20 minutes at room temperature. Color development was stopped by adding to all wells 50 μl of 3N sodium hydroxide. The optical density (OD) at 405 nm was measured on a microtiter plate reader (Molecular Devices Vmax plate reader), with the plate blank wells subtracted as background. The activity of each peptide was then expressed as the percent inhibition of TNFα capture by the p55-Ig plate, relative to the amount of TNFα captured in wells containing only assay buffer (negative control), as follows: % inhibition=100-((mean OD peptide/mean OD negative control)×100).
The inhibition of binding of TNFα to p55TNFr-IgG chimeric construct was performed as described above using several embodiments of the invention. The peptides were tested at a concentration of 1 mM.
Turning to “SEQ ID NO:35: peptide of the invention that inhibits TNFα; sequence not printed (VADSAEDSTYTQLWN)”, the “inhibition of binding of TNFα to p55TNFr-IgG chimeric construct” value worked out at 72%.
In the case of “SEQ ID NO:41: peptide of the invention that inhibits TNFα; sequence not printed (EALSAGSRASSDQVE)”, the “inhibition of binding of TNFα to p55TNFr-IgG chimeric construct” value came out at 68%.
The same measure, in the same setting: the result for “SEQ ID NO:44: peptide of the invention that inhibits TNFα; sequence not printed (AAPGTFSNTTSSTDI)” reads 28%.

Still in this assay, the particulars now being: peptide 1 mM; TNFα 25 ng/ml; read-out: inhibition of binding of TNFα to p55TNFr-IgG chimeric construct.
Regarding `CC(C)C[C@H](NC(=O)[C@H](Cc1ccccc1)NC(=O)[C@H](Cc1ccccc1)NC(=O)CNC(=O)[C@H](C)N)C(=O)N[C@@H](CCCNC(=N)N)C(=O)N[C@@H](CCC(=O)O)C(=O)N[C@@H](CC(N)=O)C(=O)N[C@@H](CCC(=O)O)C(=O)N[C@@H](C)C(=O)N[C@H](C(=O)N[C@@H](CO)C(=O)N[C@@H](C)C(=O)N[C@@H](CO)C(=O)N[C@@H](CC(N)=O)C(N)=O)C(C)C` [SEQ ID NO:19] (H-AGFFLRENEAVSASN-NH2), the inhibition at 1000 µM came to 53%.
On to `CSCC[C@H](NC(=O)[C@@H]1CCCN1C(=O)[C@H](CC(C)C)NC(=O)[C@H](CC(C)C)NC(=O)[C@H](Cc1ccccc1)NC(=O)[C@H](CO)NC(=O)[C@@H](NC(=O)[C@H](CO)NC(=O)[C@@H]1CCCN1C(=O)[C@H](C)NC(=O)[C@@H](NC(=O)[C@H](CO)NC(=O)[C@@H]1CCCN1)[C@@H](C)O)[C@@H](C)O)C(=O)NCC(=O)N1CCC[C@H]1C(N)=O` [SEQ ID NO:61] (H-PSTAPSTSFLLPMGP-NH2), for which the inhibition at 1000 µM came out at 72%.
The same measure, in the same setting: the result for `CC(C)[C@H](N)C(=O)N[C@@H](Cc1ccccc1)C(=O)N[C@@H](C)C(=O)N[C@H](C(=O)N[C@@H](CCCCN)C(=O)N[C@H](C(=O)N[C@@H](CO)C(=O)N[C@@H](CC(=O)O)C(=O)N[C@H](C(=O)N[C@H](C(=O)N[C@@H](C)C(=O)N[C@@H](CC(=O)O)C(=O)N[C@@H](CO)C(=O)N[C@@H](C)C(=O)N[C@@H](CCC(=O)O)C(N)=O)C(C)C)[C@@H](C)O)[C@@H](C)O)[C@@H](C)O` [SEQ ID NO:32] (H-VFATKTSDTVADSAE-NH2) reads 64%; that for `CC(C)[C@H](NC(=O)[C@H](CCCCN)NC(=O)[C@H](C)NC(=O)[C@@H](N)Cc1c[nH]cn1)C(=O)N[C@@H](Cc1ccccc1)C(=O)N[C@@H](C)C(=O)N[C@H](C(=O)N[C@@H](CCCCN)C(=O)N[C@H](C(=O)N[C@@H](CO)C(=O)N[C@@H](CC(=O)O)C(=O)N[C@H](C(=O)N[C@H](C(=O)N[C@@H](C)C(=O)N[C@@H](CC(=O)O)C(N)=O)C(C)C)[C@@H](C)O)[C@@H](C)O)[C@@H](C)O` [SEQ ID NO:31] (H-HAKVFATKTSDTVAD-NH2), 68%.
With `CC(C)C[C@H](NC(=O)[C@H](CC(N)=O)NC(=O)[C@H](CCC(=O)O)NC(=O)[C@H](CO)NC(=O)[C@H](Cc1c[nH]c2ccccc12)NC(=O)[C@H](Cc1ccc(O)cc1)NC(=O)[C@H](Cc1c[nH]cn1)NC(=O)[C@H](CCCNC(=N)N)NC(=O)[C@H](Cc1ccc(O)cc1)NC(=O)[C@H](CCC(N)=O)NC(=O)[C@H](CC(N)=O)NC(=O)[C@H](CCCCN)NC(=O)[C@@H](N)CCCNC(=N)N)C(=O)N[C@@H](Cc1ccccc1)C(=O)N[C@@H](CCC(N)=O)C(N)=O` [SEQ ID NO:10], the inhibition at 1000 µM came out at 49%.
Turning to `CC(C)[C@H](NC(=O)[C@@H](NC(=O)[C@H](CC(=O)O)NC(=O)[C@H](CO)NC(=O)[C@@H](NC(=O)[C@H](CCCCN)NC(=O)[C@@H](N)[C@@H](C)O)[C@@H](C)O)[C@@H](C)O)C(=O)N[C@@H](C)C(=O)N[C@@H](CC(=O)O)C(=O)N[C@@H](CO)C(=O)N[C@@H](C)C(=O)N[C@@H](CCC(=O)O)C(=O)N[C@@H](CC(=O)O)C(=O)N[C@@H](CO)C(=O)N[C@H](C(N)=O)[C@@H](C)O` [SEQ ID NO:33] (H-TKTSDTVADSAEDST-NH2), the inhibition at 1000 µM came to 67%.
With `CC(C)C[C@H](NC(=O)[C@H](Cc1ccccc1)NC(=O)[C@H](CO)NC(=O)[C@@H](NC(=O)[C@H](CO)NC(=O)[C@@H]1CCCN1C(=O)[C@H](C)NC(=O)[C@@H](NC(=O)[C@H](CO)NC(=O)[C@@H]1CCCN1C(=O)[C@H](CCC(=O)O)NC(=O)[C@@H]1CCCN1C(=O)[C@@H](N)[C@@H](C)O)[C@@H](C)O)[C@@H](C)O)C(=O)N[C@@H](CC(C)C)C(=O)N1CCC[C@H]1C(N)=O` [SEQ ID NO:60] (H-TPEPSTAPSTSFLLP-NH2), the inhibition at 1000 µM is 73%.
Still for that read-out and setting: the result for `CC(=O)N[C@@H](C)C(=O)N[C@@H](Cc1ccccc1)C(=O)N[C@@H](CC(N)=O)C(=O)N[C@@H](C)C(=O)N[C@@H](CO)C(=O)N[C@@H](CC(C)C)C(=O)N[C@@H](C)C(=O)N[C@@H](CC(C)C)C(=O)N[C@@H](CC(N)=O)C(=O)NCC(=O)N[C@H](C(=O)N[C@H](C(=O)N[C@@H](Cc1c[nH]cn1)C(=O)N[C@@H](CC(C)C)C(=O)N[C@@H](CO)C(N)=O)C(C)C)[C@@H](C)O` [SEQ ID NO:13, Acetyl-alanyl-phenylalanyl-asparaginyl-alanyl-seryl-leucyl-alanyl-leucyl-asparaginyl-glycyl-threonyl-valyl-histidyl-leucyl-serine Amide] (Ac-AFNASLALNGTVHLS-NH2) reads 34%; that for `CC(C)C[C@H](NC(=O)[C@H](C)NC(=O)[C@H](CC(C)C)NC(=O)[C@H](CO)NC(=O)[C@H](C)NC(=O)[C@H](CC(N)=O)NC(=O)[C@H](Cc1ccccc1)NC(=O)[C@H](C)NC(=O)[C@H](CCC(N)=O)NC(=O)[C@H](Cc1ccccc1)NC(=O)[C@H](CC(C)C)NC(=O)[C@H](CC(N)=O)NC(=O)[C@H](CCC(=O)O)NC(=O)[C@@H](N)CO)C(=O)N[C@@H](CC(N)=O)C(N)=O` [SEQ ID NO:24] (H-SENLFQAFNASLALN-NH2), 21%; that for `CC(C)[C@H](NC(=O)[C@@H](NC(=O)[C@@H](N)CC(=O)O)[C@@H](C)O)C(=O)N[C@@H](C)C(=O)NCC(=O)N[C@@H](C)C(=O)N[C@@H](CCCNC(=N)N)C(=O)N[C@@H](CCCCN)C(=O)N[C@@H](CC(N)=O)C(=O)N[C@@H](CCC(N)=O)C(=O)N[C@@H](Cc1ccc(O)cc1)C(=O)N[C@@H](CCCNC(=N)N)C(=O)N[C@@H](Cc1c[nH]cn1)C(=O)N[C@@H](Cc1ccc(O)cc1)C(=O)N[C@@H](Cc1c[nH]c2ccccc12)C(N)=O` [SEQ ID NO:9, Aspartyl-threonyl-valyl-alanyl-glycyl-alanyl-arginyl-lysyl-asparaginyl-glutaminyl-tyrosyl-arginyl-histidyl-tyrosyl-tryptophan Amide] (H-DTVAGARKNQYRHYW-NH2), 30%.
The same measure, in the same setting: the result for `C[C@H](NC(=O)[C@H](CCC(=O)O)NC(=O)[C@H](CCCNC(=N)N)NC(=O)[C@H](C)NC(=O)[C@@H](N)CC(=O)O)C(=O)N[C@@H](CCC(=O)O)C(=O)N[C@@H](CO)C(=O)NCC(=O)N[C@@H](CO)C(=O)N[C@@H](Cc1ccccc1)C(=O)N[C@H](C(=O)N[C@@H](C)C(=O)N[C@@H](CO)C(=O)N[C@@H](CCC(=O)O)C(=O)N[C@@H](CC(N)=O)C(N)=O)[C@@H](C)O` [SEQ ID NO:5] (H-DAREAESGSFTASEN-NH2) reads 58%.
